Columns and labels:
Conditions in all cases: 72 h
[1] = test system: Caco-2; assay: cell viability relative to DMSO; higher = less toxic
[2] = test system: HepG2; assay: as above
[3] = test system: U2OS; assay: as above
[4] = test system: Vero E6; assay: as above
[5] = test system: Caco-2; assay: relative viability EC50 (midpoint between 100% and the lowest measured viability); higher = less toxic
[6] = test system: HepG2; assay: as above
[7] = test system: U2OS; assay: as above
[8] = test system: Vero E6; assay: as above
[9] = test system: Caco-2; assay: drug sensitivity score (DSS) for viability; higher = more toxic; extreme values may be limits of the assay
[10] = test system: HepG2; assay: as above
[11] = test system: U2OS; assay: as above
[12] = test system: Vero E6; assay: as above
[13] = test system: Calu-3; assay: cell viability relative to DMSO; higher = less toxic
[14] = test system: Calu-3; assay: relative viability EC50 (midpoint between 100% and the lowest measured viability); higher = less toxic
[15] = test system: Calu-3; assay: drug sensitivity score (DSS) for viability; higher = more toxic; extreme values may be limits of the assay

## NC(=O)NC1NC(=O)NC1=O (stereo unspecified) [allantoin]
[1]; 1 nM
  cell viability: 102%
[1]; 10 nM
  cell viability: 109%
[1]; 100 nM
  cell viability: 96.3%
[1]; 1000 nM
  cell viability: 100%
[1]; 10000 nM
  cell viability: 93.5%
[2]; 1 nM
  cell viability: 114%
[2]; 10 nM
  cell viability: 107%
[2]; 100 nM
  cell viability: 104%
[2]; 1000 nM
  cell viability: 99.9%
[2]; 10000 nM
  cell viability: 95.5%
[3]; 1 nM
  cell viability: 99%
[3]; 10 nM
  cell viability: 102%
[3]; 100 nM
  cell viability: 99.5%
[3]; 1000 nM
  cell viability: 103%
[3]; 10000 nM
  cell viability: 97.8%
[4]; 1 nM
  cell viability: 108%
[4]; 10 nM
  cell viability: 98.5%
[4]; 100 nM
  cell viability: 103%
[4]; 1000 nM
  cell viability: 102%
[4]; 10000 nM
  cell viability: 102%
[5]
  relative viability EC50: > 10 µM
[6]
  relative viability EC50: > 10 µM
[7]
  relative viability EC50: > 10 µM
[8]
  relative viability EC50: > 10 µM
[9]
  drug sensitivity score: 0
[10]
  drug sensitivity score: 0
[11]
  drug sensitivity score: 0
[12]
  drug sensitivity score: 0

## C[N+]12CCC(CC1)C(OC(=O)C(O)(c1ccccc1)c1ccccc1)C2 (stereo unspecified) [clidinium]
[1]; 1 nM
  cell viability: 102%
[1]; 10 nM
  cell viability: 112%
[1]; 100 nM
  cell viability: 106%
[1]; 1000 nM
  cell viability: 95.4%
[1]; 10000 nM
  cell viability: 103%
[2]; 1 nM
  cell viability: 92.5%
[2]; 10 nM
  cell viability: 108%
[2]; 100 nM
  cell viability: 90.6%
[2]; 1000 nM
  cell viability: 104%
[2]; 10000 nM
  cell viability: 99.7%
[4]; 1 nM
  cell viability: 102%
[4]; 10 nM
  cell viability: 102%
[4]; 100 nM
  cell viability: 101%
[4]; 1000 nM
  cell viability: 102%
[4]; 10000 nM
  cell viability: 99.8%
[5]
  relative viability EC50: > 10 µM
[6]
  relative viability EC50: > 10 µM
[8]
  relative viability EC50: > 10 µM
[9]
  drug sensitivity score: 0
[10]
  drug sensitivity score: 0
[12]
  drug sensitivity score: 0

## Cc1c(-c2ccc(-c3ccccc3F)cc2)nc2ccc(F)cc2c1C(=O)O [brequinar]
[1]; 1 nM
  cell viability: 123%
[1]; 10 nM
  cell viability: 93.8%
[1]; 100 nM
  cell viability: 93.4%
[1]; 1000 nM
  cell viability: 105%
[1]; 10000 nM
  cell viability: 111%
[13]; 1 nM
  cell viability: 96.4%
[13]; 10 nM
  cell viability: 93.9%
[13]; 100 nM
  cell viability: 101%
[13]; 1000 nM
  cell viability: 106%
[13]; 10000 nM
  cell viability: 99.6%
[2]; 1 nM
  cell viability: 105%
[2]; 10 nM
  cell viability: 104%
[2]; 100 nM
  cell viability: 95.6%
[2]; 1000 nM
  cell viability: 59.2%
[2]; 10000 nM
  cell viability: 41.8%
[3]; 1 nM
  cell viability: 98.2%
[3]; 10 nM
  cell viability: 93.1%
[3]; 100 nM
  cell viability: 103%
[3]; 1000 nM
  cell viability: 103%
[3]; 10000 nM
  cell viability: 103%
[4]; 1 nM
  cell viability: 92.9%
[4]; 10 nM
  cell viability: 93.3%
[4]; 100 nM
  cell viability: 93.5%
[4]; 1000 nM
  cell viability: 66.3%
[4]; 10000 nM
  cell viability: 64.2%
[5]
  relative viability EC50: > 10 µM
[14]
  relative viability EC50: > 10 µM
[6]
  relative viability EC50: 0.563 µM
[7]
  relative viability EC50: > 10 µM
[9]
  drug sensitivity score: 0
[15]
  drug sensitivity score: 0
[10]
  drug sensitivity score: 8.3
[11]
  drug sensitivity score: 0
[12]
  drug sensitivity score: 6.6

## Oc1cc(O)c2cc(O)c(-c3cc(O)c(O)c(O)c3)[o+]c2c1 [delphinidin]
[1]; 1 nM
  cell viability: 101%
[1]; 10 nM
  cell viability: 95.5%
[1]; 100 nM
  cell viability: 90.8%
[1]; 1000 nM
  cell viability: 94.6%
[1]; 10000 nM
  cell viability: 83.4%
[2]; 1 nM
  cell viability: 104%
[2]; 10 nM
  cell viability: 102%
[2]; 100 nM
  cell viability: 103%
[2]; 1000 nM
  cell viability: 114%
[2]; 10000 nM
  cell viability: 96.5%
[3]; 1 nM
  cell viability: 103%
[3]; 10 nM
  cell viability: 104%
[3]; 100 nM
  cell viability: 98.1%
[3]; 1000 nM
  cell viability: 102%
[3]; 10000 nM
  cell viability: 99.2%
[4]; 1 nM
  cell viability: 100%
[4]; 10 nM
  cell viability: 98.8%
[4]; 100 nM
  cell viability: 98.3%
[4]; 1000 nM
  cell viability: 92.7%
[4]; 10000 nM
  cell viability: 97.9%
[5]
  relative viability EC50: > 10 µM
[6]
  relative viability EC50: > 10 µM
[7]
  relative viability EC50: > 10 µM
[8]
  relative viability EC50: > 10 µM
[9]
  drug sensitivity score: 0.5
[10]
  drug sensitivity score: 0
[11]
  drug sensitivity score: 0
[12]
  drug sensitivity score: 0

— the supplement of paper PMC13380429
